System: fear-potentiated acoustic startle response in Fischer F344 rats
Assay: Fear-potentiated startle response in rats
Type: in vivo, rat
Text: The compounds of formula I can be administered to the animal in order to assess their effects on emotional reactivity.
Signs of decreased emotional reactivity to acoustic stimuli have been discovered in an animal model of fear potentiated acoustic startle. Anxiolytic-like activity—as assessed by decreased acoustic startle reactivity—was observed one hour after treatment with a compound of the formula I compared to vehicle (PEG400) control treatment and to active treatment with diazepam given orally. […] In human medicine, increased acoustic startle reactivity has been observed in patients suffering from PTSD anxiety compared to healthy subjects (Exaggerated acoustic startle reflex in Gulf War veterans with posttraumatic stress disorder, Am. J. Psychiatry (1996), 153(1), 64-68).
In the fear-potentiated startle procedure in rats, a neutral stimulus such as light is repetitively paired with an aversive stimulus such as mild foot shock. When an animal is presented with loud acoustic stimuli, enhanced startle responses are elicited when the startle stimulus is preceded by the light (a classically conditioned increase in fear). Benzodiazepine anxiolytics attenuate the response enhancement. Startle response was recorded by using auditory startle chambers. […]

Row | SMILES | startle response amplitude (oral 107 mg/kg, one hour after treatment, compared with vehicle (PEG400) group control 1) | startle response amplitude (oral 3 mg/kg, compared with vehicle group control 2)
1 | CNC(=O)[C@@H](c1ccccc1)N1CCc2cc(OC)c(OC)cc2[C@@H]1CCc1ccc(C(F)(F)F)cc1.Cl [Compound A, (R)-2-{(S)-6,7-dimethoxy-1-[2-(4-trifluoromethyl-phenyl)-ethyl]-3,4-dihydro-1H-isoquinolin-2-yl}-N-methyl-2-phenyl-acetamide hydrochloride] | reduces in a significant manner the startle response amplitude | –
2 | CN1C(=O)CN=C(c2ccccc2)c2cc(Cl)ccc21 [diazepam] | – | reduces in a significant manner the startle response amplitude

— patent US9532985B2, “Tetrahydroquinoline derivatives for treating post-traumatic stress disorders” (ACTELION PHARMACEUTICALS LTD., priority 2007, dated 2017)
